Assay results from patent publication US4068074A, “Cephalosporin derivatives having at the 3-position of the cephem ring a heterocyclic thiomethyl group with a carboxy or sulfo group and at the 7-position of the cephem ring an α-heterocylic acylaminophenyl-acetamide group” (priority 1974, dated 1978).
In brackets after ≈: the same amount, converted by molar mass. Like-named read-outs stand apart in the source and are kept apart here.

What was measured:
Assay type in all cases: cell-based
[1] = system: Micrococcus flavus ATCC 10240; experiment: MIC against bacteria (Table I), strain (15); conditions: ATCC10240
From the text: (§1) Now, for illustrating the excellent pharmacological effects of the compounds of this invention, the values of MIC (γ/ml.) of the compounds against various bacteria are shown in Table 1, in which the compounds of this invention used are shown by example numbers.
(15) Micrococcus flavus ATCC 10240

[2] = system: Escherichia coli kauffmann 0-1; experiment: MIC against bacteria (Table I), strain (7); conditions: Escherichia coli
From the text: as §1
(7) Escherichia coli kauffmann 0-1

[3] = system: Bacillus subtilis ATCC 6633; experiment: MIC against bacteria (Table I), strain (14); conditions: ATCC6633
From the text: as §1
(14) Bacillus subtilis ATCC 6633

[4] = system: Bacillus megatherium 10778; experiment: MIC against bacteria (Table I), strain (13)
From the text: as §1

[5] = system: Staphylococcus Shimanishi; experiment: MIC against bacteria (Table I), strain (17)
From the text: as §1
(17) Staphylococcus Shimanishi

Staphylococcus Onuma = experiment: MIC against bacteria (Table I), strain (18); conditions: (18) Staphylococcus Onuma; read-out: MIC
From the text: as §1
(18) Staphylococcus Onuma

[6] = system: Staphylococcus aureus 209P; experiment: MIC against bacteria (Table I), strain (16); conditions: Staphylococcus aureus, 209P
From the text: as §1
(16) Staphylococcus aureus 209P

Proteus vulgaris 0X 19US = experiment: MIC against bacteria (Table I), strain (2); conditions: 0X19US
From the text: as §1
(2) Proteus vulgaris 0X 19US

Shigella sonnei II 37148 = experiment: MIC against bacteria (Table I), strain (12); conditions: II37148
From the text: as §1

[7] = system: Psuedomonas ovalis IMA 1002; experiment: MIC against bacteria (Table I), strain (6); conditions: (6) Psuedomonas ovalis IMA 1002; read-out: MIC
From the text: as §1
(6) Psuedomonas ovalis IMA 1002

[8] = system: Pseudomonas aeruginosa ATCC 8689; experiment: MIC against bacteria (Table I), strain (4); conditions: ATCC8689; (4) Pseudomonas aeruginosa ATCC 8689; read-out: MIC
From the text: as §1
(4) Pseudomonas aeruginosa ATCC 8689

Salmonella typhi H901 W = experiment: MIC against bacteria (Table I), strain (9); conditions: Salmonella enterica, TYPHI
From the text: as §1
(9) Salmonella typhi H901 W

[9] = system: Shigella flexneri 2a 1675; experiment: MIC against bacteria (Table I), strain (11); conditions: 2A1675
From the text: as §1

Proteus vulgaris OXK US = experiment: MIC against bacteria (Table I), strain (1); conditions: (1) Proteus vulgaris OXK US; read-out: MIC
From the text: as §1
(1) Proteus vulgaris OXK US

[10] = system: Proteus mirabilis IXM OM-19; experiment: MIC against bacteria (Table I), strain (3); conditions: IXMOM19
From the text: as §1
(3) Proteus mirabilis IXM OM-19

Salmonella enteritidis = experiment: MIC against bacteria (Table I), strain (10); conditions: Salmonella enterica
From the text: as §1
(10) Salmonella enteritidis

[11] = system: Pseudomonas aeruginosa 99 (Gentamycin resistant); experiment: MIC against bacteria (Table I), strain (5)
From the text: as §1
(5) Pseudomonas aeruginosa 99 (Gentamycin resistant)

[12] = system: Klebsiella pneumoniae ATCC 10031; experiment: MIC against bacteria (Table I), strain (8); conditions: ATCC10031
From the text: as §1
(8) Klebsiella pneumoniae ATCC 10031

[13] = (14) Bacillus subtilis ATCC 6633, read-out: MIC
[14] = (13) Bacillus megatherium 10778, read-out: MIC
[15] = (17) Staphylococcus Shimanishi, read-out: MIC
[16] = (2) Proteus vulgaris 0X 19US, read-out: MIC
[17] = (12) Shigella sonnei II 37148, read-out: MIC
[18] = (11) Shigella flexneri 2a 1675, read-out: MIC
[19] = (3) Proteus mirabilis IXM OM-19, read-out: MIC
[20] = (10) Salmonella enteritidis, read-out: MIC
[21] = (5) Pseudomonas aeruginosa 99 (Gentamycin resistant), read-out: MIC
[22] = (8) Klebsiella pneumoniae ATCC 10031, read-out: MIC

SMILES	MIC [2]	MIC [3, 13]	MIC [4, 14]	MIC [5, 15]	MIC (Staphylococcus Onuma)	MIC [6]	MIC (Proteus vulgaris 0X 19US; [16])	MIC (Shigella sonnei II 37148; [17])	MIC [7]	MIC [8]	MIC (Salmonella typhi H901 W)	MIC [9, 18]	MIC (Proteus vulgaris OXK US)	MIC [10, 19]	MIC (Salmonella enteritidis; [20])	MIC [11, 21]	MIC [12, 22]	MIC ([1]; Micrococcus flavus)	MIC ([5]; Staphylococcus)	MIC (Proteus vulgaris 0X 19US; Proteus vulgaris)	other results
Cc1cc(O)c(C(=O)N[C@@H](C(=O)N[C@@H]2C(=O)N3C(C(=O)O)=C(CSc4nnc(SCC(=O)O)s4)CS[C@H]23)c2ccccc2)cn1 [Example 29, 7-[D-α-(4-hydroxy-6-methylnicotinoylamido)-α-phenylacetamido]-3-(5-carboxymethylthio-1,3,4,-thiadiazol-2-yl)thiomethyl-Δ^3-cephem-4-carboxylic acid]	3.13 µg/mL (≈ 4.54 µM)	0.78 µg/mL (≈ 1.13 µM)	0.78 µg/mL (≈ 1.13 µM)	6.25 µg/mL (≈ 9.07 µM)	12.5 µg/mL (≈ 18.1 µM)	1.56 µg/mL (≈ 2.26 µM)	12.5 µg/mL (≈ 18.1 µM)	3.13 µg/mL (≈ 4.54 µM)	12.5 µg/mL (≈ 18.1 µM)	12.5 µg/mL (≈ 18.1 µM)	1.56 µg/mL (≈ 2.26 µM)	0.78 µg/mL (≈ 1.13 µM)	< 0.09 µg/mL	0.78 µg/mL (≈ 1.13 µM)	0.78 µg/mL (≈ 1.13 µM)	6.25 µg/mL (≈ 9.07 µM)	6.25 µg/mL (≈ 9.07 µM)				MIC ([1]; (15) Micrococcus flavus ATCC 10240, read-out: MIC): 6.25 µg/mL (≈ 9.07 µM)
Nn1c(SCC(=O)O)nnc1SCC1=C(C(=O)O)N2C(=O)[C@@H](NC(=O)[C@H](NC(=O)c3cnccc3O)c3ccccc3)[C@H]2SC1 [Example 30, 7-[D-α-(4-hydroxynicotinoylamido)-α-phenylacetamido]-3-(1-amino-5-carboxymethylthio-1,3,4-triazol-2-yl)thiomethyl-Δ^3-cephem-4-carboxylic acid]	6.25 µg/mL (≈ 9.29 µM)	0.78 µg/mL (≈ 1.16 µM)	0.78 µg/mL (≈ 1.16 µM)		25 µg/mL (≈ 37.2 µM)	1.56 µg/mL (≈ 2.32 µM)	0.78 µg/mL (≈ 1.16 µM)	12.5 µg/mL (≈ 18.6 µM)	25 µg/mL (≈ 37.2 µM)	25 µg/mL (≈ 37.2 µM)	6.25 µg/mL (≈ 9.29 µM)	6.25 µg/mL (≈ 9.29 µM)	< 0.09 µg/mL	0.78 µg/mL (≈ 1.16 µM)	1.56 µg/mL (≈ 2.32 µM)			12.5 µg/mL (≈ 18.6 µM)	12.5 µg/mL (≈ 18.6 µM)		MIC ([11]; Pseudomonas aeruginosa): 12.5 µg/mL (≈ 18.6 µM); MIC ([12]; Klebsiella pneumoniae): 12.5 µg/mL (≈ 18.6 µM)
O=C(O)Cc1nnc(SCC2=C(C(=O)O)N3C(=O)[C@@H](NC(=O)[C@H](NC(=O)c4csccc4=O)c4ccc(O)cc4)[C@H]3SC2)s1 [Example 32, 7-[D-α-(4-thiopyrone-3-carboxamido)-α-p-hydroxyphenylacetamido]-3-[5-carboxymethyl-1,3,4-thiadiazol-2-yl]thiomethyl-Δ^3-cephem-4-carboxylic acid]	3.13 µg/mL (≈ 4.63 µM)				6.25 µg/mL (≈ 9.25 µM)	1.56 µg/mL (≈ 2.31 µM)		3.13 µg/mL (≈ 4.63 µM)	50 µg/mL (≈ 74 µM)	50 µg/mL (≈ 74 µM)	1.56 µg/mL (≈ 2.31 µM)	0.78 µg/mL (≈ 1.15 µM)	< 0.09 µg/mL			25 µg/mL (≈ 37 µM)	6.25 µg/mL (≈ 9.25 µM)	3.13 µg/mL (≈ 4.63 µM)	3.13 µg/mL (≈ 4.63 µM)	3.13 µg/mL (≈ 4.63 µM)	MIC ([3]; Bacillus subtilis): 0.78 µg/mL (≈ 1.15 µM); MIC ([4]; Bacillus, 10778): 0.78 µg/mL (≈ 1.15 µM); MIC ([10]; Proteus mirabilis): 0.78 µg/mL (≈ 1.15 µM); MIC (Salmonella enteritidis; ENTERITIDIS): 1.56 µg/mL (≈ 2.31 µM)
O=C(O)CSc1nnc(SCC2=C(C(=O)O)N3C(=O)[C@@H](NC(=O)[C@H](NC(=O)c4cnccc4O)c4ccc(O)cc4)[C@H]3SC2)s1 [Example 33, 7-[D-α-(4-hydroxynicotinoylamido)-α-p-hydroxyphenylacetamido]-3-[5-carboxymethylthio-1,3,4-Δ^3-thiadiazol-2-yl]thiomethyl-cephem-4-carboxylic acid]	3.13 µg/mL (≈ 4.53 µM)	0.78 µg/mL (≈ 1.13 µM)	0.78 µg/mL (≈ 1.13 µM)	12.5 µg/mL (≈ 18.1 µM)	25 µg/mL (≈ 36.2 µM)	3.13 µg/mL (≈ 4.53 µM)			12.5 µg/mL (≈ 18.1 µM)	25 µg/mL (≈ 36.2 µM)	3.13 µg/mL (≈ 4.53 µM)		< 0.09 µg/mL	0.39 µg/mL (≈ 0.565 µM)	1.56 µg/mL (≈ 2.26 µM)	25 µg/mL (≈ 36.2 µM)	25 µg/mL (≈ 36.2 µM)	3.13 µg/mL (≈ 4.53 µM)		12.5 µg/mL (≈ 18.1 µM)	MIC (Shigella sonnei II 37148; Shigella sonnei): 3.13 µg/mL (≈ 4.53 µM); MIC ([9]; Shigella flexneri): 3.13 µg/mL (≈ 4.53 µM)
